Here are results for one compound from patent US20220332763A1, “FUSED POLYPEPTIDE AND USE THEREOF” (NANJING ANJI BIOLOGICAL TECHNOLOGY CO., LTD., priority 2019, published 2022).

The structures appear in SMILES notation.

Holding throughout (settings): Homo sapiens, 48 h, read-out: Inhibitory effect (%) on tumor growth
One experiment has as its system Head and neck cancer. The experiment is described as follows: cells.
A further experiment concerns Brain cancer. Nature of the experiment: cells.
For a further experiment, the system named is Esophageal cancer. Nature of the experiment: cells.
Another experiment concerns Pancreatic cancer. The experiment is described as follows: cells.
The test system of another experiment is Thyroid cancer. The experiment is described as follows: cells.
Another experiment concerns Liver cancer. Nature of the experiment: cells.
The next experiment concerns Breast cancer. Nature of the experiment: cells.
The subject of another experiment is Gastric cancer. Nature of the experiment: cells.
For another experiment, the system named is Kidney cancer. Nature of the experiment: cells.
The next experiment relates to Colorectal cancer. The experiment is described as follows: cells.
The test system of another experiment is Ovarian cancer. The experiment is described as follows: cells.
Another experiment deals with Cervical cancer. The experiment is described as follows: cells.
The next experiment relates to Prostate cancer. Nature of the experiment: cells.
For the next experiment, the system named is Melanoma. Nature of the experiment: cells.
A further experiment deals with Hemangioma. The experiment is described as follows: cells.
Another experiment deals with Sarcoma. The experiment is described as follows: cells.
Another experiment deals with Lung cancer. The experiment is described as follows: cells.
In the next experiment the test system is Uterus cancer. The experiment is described as follows: tissue or blood.

Method for Brain cancer: (§1) A plurality of types of human tumor cells were cultured in a 5% CO2 incubator at 37° C. and digested with trypsin when the density was 90% or above. The cells were resuspended in a culture solution and counted, and the cell concentration was adjusted to 2×10^4 cells/mL. The cell suspension was inoculated into a 96-well plate with 100 μL per well, and then cultured overnight in a 5% CO2 incubator at 37° C. After the cells completely adhered to the wall, each polypeptide according to the present invention was added as an administration group, and the culture solution without any drug was used as a blank control group. The solutions were diluted to 1 μmol/L by using a diluent. Each diluent was separately added to the 96-well plate with 100 per well, and the cells continued to be cultured in a 5% CO2 incubator for 48 hours at 37° C. Then 20 μL of MTT was added, and the cells continued to be cultured for 4 hours. The medium was sucked, and 100 μL of DMSO was added to each well for dissolution. Absorbance was measured by a microplate reader at a detection wavelength of 570 nm and a reference wavelength of 630 nm, and the growth inhibition rate was calculated. The formula was as follows: tumor growth inhibition rate (%)=(1−absorbance of the administration group/absorbance of the blank group)*100%. The experiment was repeated independently for 3 times.
Method for Breast cancer: as §1
Method for Cervical cancer: as §1
Method for Colorectal cancer: as §1
Method for Esophageal cancer: as §1
Method for Gastric cancer: as §1
Method for Head and neck cancer: as §1
Method for Hemangioma: as §1
Method for Kidney cancer: as §1
Method for Liver cancer: as §1
Method for Lung cancer: as §1
Method for Melanoma: as §1
Method for Ovarian cancer: as §1
Method for Pancreatic cancer: as §1
Method for Prostate cancer: as §1
Method for Sarcoma: as §1
Method for Thyroid cancer: as §1
Method for Uterus cancer: as §1

As to `CC(=O)O[C@@]12CO[C@@H]1C[C@H](O)[C@@]1(C)C(=O)[C@H](O)C3=C(C)[C@@H](OC(=O)[C@H](O)[C@@H](NC(=O)OC(C)(C)C)c4ccccc4)C[C@@](O)([C@@H](OC(=O)c4ccccc4)[C@H]21)C3(C)C` [Docetaxel], the inhibition at 1 µM in the experiment with Head and neck cancer was determined as 62.5 ± 2.12%; in the experiment with Brain cancer it was 68.1 ± 10.3%; in the experiment on Esophageal cancer, 64.4 ± 8.06%; in the experiment with Pancreatic cancer, 76.7 ± 10.1%; in the experiment on Thyroid cancer it was 73.2 ± 19.3%; in the experiment with Liver cancer it was 74.2 ± 11.7%. Moreover, the inhibition at 1 µM came to 65.1 ± 10.7% in the experiment on Breast cancer; 74.2 ± 6.38% in the experiment with Gastric cancer; 75.5 ± 10.2% with Kidney cancer; 53.5 ± 10.4% with Colorectal cancer; 62.8 ± 20.2% in the experiment with Ovarian cancer; 66.6 ± 11.3% in the experiment with Cervical cancer. Besides, the inhibition at 1 µM in the experiment with Prostate cancer stood at 78.4 ± 4.21%; in the experiment with Melanoma, 68.4 ± 6.23%; with Hemangioma it was 78.8 ± 6.16%; with Sarcoma it was 62.5 ± 8.75%; with Lung cancer, 73.3 ± 7.03%; in the experiment on Uterus cancer it was 57.2 ± 12.3%.
